The record followed here is US20130281304A1, “Comprehensive Methylome Map of Myeloid and Lymphoid Commitment from Hematopoietic Proenitors” (priority 2010, published 2013).

This assay relates to hematopoietic progenitors (MPP^FL+, CLP, DN1, DN2, DN3). Nature of the assay: OP9:OP9DL1 stromal co-cultures, myeloid versus lymphoid progeny by flow cytometry. The class given is cell-based, mouse. Particulars: 50 nM; for myeloid versus lymphoid progeny: DN3 progenitors; for myeloid versus lymphoid progeny / percentage of myeloid progeny versus lymphoid progeny: 6 days after plating on OP9:OP9DL1 stroma; for percentage of myeloid progeny versus lymphoid progeny: MPP^FL+, CLP, DN1 and DN2 progenitors. The text has this: FIG. 6 is a series of graphical representations of FACS plots and quantitation of myeloid versus lymphoid progeny. FIG. 6a are representative FACS plots of progeny from hematopoietic progenitors 6 days after plating on OP9:OP9DL1 stroma in the presence or absence of 5-aza-2′deoxycytidine. […] FIG. 6b is a histogram depicting quantitation of myeloid versus lymphoid progeny. The percentage of myeloid versus lymphoid progeny, as defined above, were quantified for each well from the experiment in a. Each bar represents the average of triplicate wells, and the error bars are the standard deviations between wells.
OP9:OP9DL1 stromal co-cultures. 3000 OP9 and 3000 OP9DL1 cells were plated in each well of 96 well plates in MEMa+10% FBS. The next day, 50 double-sorted progenitors were plated per well in the presence of 5 ng/ml IL-7 and F1t3L, and 10 ng/ml IL-3, IL-6, M-CSF, GM-CSF, and G-CSF (PeproTech). 50 nM 5-aza-2′-deoxycytide (Sigma) or vehicle (50% acetic acid) was added to the wells as indicated. At day 3, half of the media plus cytokines and drugs was replaced. At day 6, progeny from each well were stained and analyzed by flow cytometry to identify lymphoid versus myeloid progeny.
To test the hypothesis that reduced methylation preferentially promotes myeloid as opposed to lymphoid differentiation, an in vitro assay system that promotes both myeloid and lymphoid development was used (as in Engel et al., Epigenetics. 2009;4:98-99 and Bell et al., Nature. 2008;452:764-767). […] It evident that inhibiting DNA methylation promotes myeloid versus lymphoid specification, providing a mechanism for the myeloid skewing observed in Dnmt1 hypomorphs.
For orientation: A flow cytometer gives signals particle by particle.

The mark [1] stands for this setting: listed as 5-aza-2′deoxycytidine.

For the compound `Nc1ncn([C@H]2C[C@H](O)[C@@H](CO)O2)c(=O)n1` [5-aza-2′-deoxycytidine], the “myeloid versus lymphoid progeny” value was “remained lymphoid committed” and the “percentage of myeloid progeny versus lymphoid progeny” value is “increased at the expense of lymphoid progeny”. Moreover, under “DN1 cells, 6 days”, the “myeloid skewing, compared between progenitor populations” value is “most pronounced in DN1 cells”. Under setting [1], the “myeloid versus lymphoid progeny” value is on record as “continued to generate an exclusively lymphoid readout” and the “percentage of myeloid progeny versus lymphoid progeny” value is given as “trended towards generating more myeloid progeny”. For the same compound, the cell expansion result (DN3 wells, 6 days) is “inhibited cell expansion”.
